Experimental findings from patent US9284308B2, “Methylene linked quinolinyl modulators of RORγt” (Janssen Pharmaceutica NV, priority 2013, dated 2016) are described below.

Where a name gives a salt, the structure may show the parent alone.

One experiment addresses T1, human RORγt LBD (Homo sapiens, UniProt P51449).
T1 construct: expressed in transfected cells; host or cells: HEK293T
T1 sequence (P51449 258-518): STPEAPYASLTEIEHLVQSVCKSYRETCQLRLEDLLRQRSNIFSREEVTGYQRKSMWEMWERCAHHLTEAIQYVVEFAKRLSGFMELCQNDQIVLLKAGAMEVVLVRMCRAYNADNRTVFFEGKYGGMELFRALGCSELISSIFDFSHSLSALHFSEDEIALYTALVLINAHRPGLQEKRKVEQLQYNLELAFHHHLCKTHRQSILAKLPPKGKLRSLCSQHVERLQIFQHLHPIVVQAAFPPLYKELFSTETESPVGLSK
Kind of experiment: RORγt (LBD) reporter assay in HEK293T cells. The note with it: for RORγt (LBD) Reporter Assay, % inhibition @ 6 μM: 6 μM compound; for inhibition at 6 µM: HEK-293T, read-out: RORγt (LBD) Reporter Assay, % inhibition @ 6 μM, 6 μM compound. The class given is cell-based. The text has this: RORγt (LBD) Reporter Assay
Cells used in the assay were co-transfected with two constructs. The first construct, pBIND-RORγt LBD, contained the wild type human RORγt LBD fused to the DNA binding domain of the GAL4 protein. The second construct, pGL4.31 (Promega Cat no. C935A), contained multiple GAL4 responsive DNA elements upstream of firefly luciferase. […] The mutant construct was called pBIND-RORγt-AF2.
The pBIND vector contains the GAL4 DNA Binding Domain (GAL4 DBD) and the renilla luciferase gene under control of the SV40 promoter. Renilla luciferase expression serves as a control for transfection efficiency and cell viability.
The reporter assay was performed by transiently transfecting HEK293T cells with 5 μg of pBIND-RORγt LBD or pBIND-RORγt LBD-AF2 and 5 μg pGL4.31 (Promega Cat no. C935A) using Fugene 6 (Invitrogen Cat no. E2691) at a 1:6 ratio of DNA:Fugene 6 in a T-75 flask in which cells were at least 80% confluent. Twenty four hours after bulk transfection, cells were plated into 96-well plates at 50,000 cells/well in phenol-red free DMEM containing 5% Lipid Reduced FCS and Pen/Strep. Six hours after plating, cells were treated with compounds for 24 hours. Media was removed and cells were lysed with 50 μL 1× Glo Lysis Buffer (Promega). Dual Glo Luciferase Reagent (50 μL/well) was then added and firefly luciferase luminescence was read on an Envision after a ten minute incubation. Finally, Stop and Glo reagent (50 μL/well) was added and renilla luciferase luminescence was read on an Envision after a ten minute incubation. […] Agonist compounds increase RORγt-driven luciferase expression, and antagonist or inverse agonist compounds decrease luciferase expression.

The target of experiment [1] is T2, human RORγt ligand binding domain (RORγt LBD) (Homo sapiens, UniProt P51449).
T2 construct: His-tag (N); TurboTEV protease cleavage site (ENLYFQG) (N); made in house; host or cells: E. coli (pHIS1, modified pET vector)
T2 sequence (P51449 with tags, fused parts or gaps): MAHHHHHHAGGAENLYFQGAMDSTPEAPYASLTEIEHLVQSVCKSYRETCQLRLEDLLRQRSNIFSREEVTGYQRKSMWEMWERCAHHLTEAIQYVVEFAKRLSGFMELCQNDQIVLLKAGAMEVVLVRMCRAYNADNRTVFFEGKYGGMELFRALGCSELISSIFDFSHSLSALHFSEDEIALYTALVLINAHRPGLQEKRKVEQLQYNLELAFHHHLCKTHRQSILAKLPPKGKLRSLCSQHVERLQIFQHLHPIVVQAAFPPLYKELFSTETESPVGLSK
Description: RORγt ThermoFluor assay (ligand binding affinity from protein thermal stability). As to the method: This approach is applicable to a wide variety of systems, and rigorous in theoretical interpretation through quantitation of equilibrium binding constants (KD).
The shift in the melting point described as a ΔTm is proportional to the concentration and affinity of the ligand.
RORγt ThermoFluor® Assay Construct
Protein and compound solutions are dispensed into black 384-well polypropylene PCR microplates (Abgene) and overlayed with silicone oil (1 μL, Fluka, type DC 200) to prevent evaporation.
Bar-coded assay plates are robotically loaded onto a thermostatically controlled PCR-type thermal block and then heated at a typical ramp-rate of 1° C./min for all experiments. Fluorescence was measured by continuous illumination with UV light (Hamamatsu LC6) supplied via fiber optic and filtered through a band-pass filter (380-400 nm; >6 OD cutoff). Fluorescence emission of the entire 384-well plate was detected by measuring light intensity using a CCD camera (Sensys, Roper Scientific) filtered to detect 500±25 nm, resulting in simultaneous and independent readings of all 384 wells. Images were collected at each temperature, and the sum of the pixel intensity in a given area of the assay plate was recorded versus temperature. Reference wells contained RORγt without compounds, and the assay conditions were as follows: • 0.065 mg/mL RORγt • 60 μM 1,8-ANS • 100 mM Hepes, pH 7.0 • 10 mM NaCl • 2.5 mM GSH • 0.002% Tween-20
Project compounds were arranged in a pre-dosed mother plate (Greiner Bio-one) wherein compounds are serially diluted in 100% DMSO by 1:2 from a high concentration of 10 mM over 12 columns within a series (column 12 is a reference well containing DMSO, no compound). The compounds were robotically dispensed directly into assay plates (1×=[…]) using a Hummingbird capillary liquid handling instrument (Digilab). Following compound dispense, protein and dye in buffer was added to achieve the final assay volume of 3 μL, followed by 1 μL of silicone oil.
(Differential scanning fluorimetry follows unfolding on heating by fluorescence.)

The test system of experiment [2] is IL-17 production by CD4 T cells. Description: Human Th17 assay. The note with it: IL-17 production by human CD4 T cells. The class given is cell-based. As to the method: The human Th17 assay tests the effect of RORγt modulatory compounds on IL-17 production by CD4 T cells under conditions which favor Th17 differentiation. Total CD4^+ T cells were isolated from the peripheral blood mononuclear cells (PBMC) of healthy donors using a CD4^+ T cell isolation kit II, following the manufacturer's instructions (Miltenyi Biotec). […] 50 μL of compound at titrated concentrations in DMSO were added into each well at final DMSO concentration at 0.2%. Cells were incubated for 1 hour, then 50 μL of Th17 cell differentiation medium was added to each well. The final concentrations of antibodies and cytokines (R&D Systems) in differentiation medium were: 3×10^6/mL anti-CD3/CD28 beads (prepared using human T cell activation/expansion kit, Miltenyi Biotec), 10 μg/mL anti-IL4, 10 μg/mL anti-IFNγ, 10 ng/mL IL1β, 10 ng/mL IL23, 50 ng/mL IL6, 3 ng/mL TGFβ and 20 U/mL IL2. Cells were cultured at 37° C. and 5% CO2 for 3 days. Supernatants were collected and the accumulated IL-17 in culture was measured by using MULTI-SPOT® Cytokine Plate following manufacture's instruction (Meso Scale Discovery). The plate was read using Sector Imager 6000, and IL-17 concentration was extrapolated from the standard curve. The IC50s were determined by GraphPad.

Turning to `COc1nc2ccc(C(O)(c3ccc(C(F)(F)F)cc3)c3cccnc3)cc2c(Cl)c1Cc1ccc(-n2cccn2)cc1` (single isomer, unassigned) [Example 162c], the IC50 on human RORγt LBD stood at 98 nM; in experiment [2] (Homo sapiens, CD4+ T), 49 nM. Further, the “RORγt (LBD) Reporter Assay, % inhibition @ 6 μM” value (from here on “RORγt … % inhibition @ 6 μM”) at human RORγt LBD is given as 98%. The compound also yielded a Kd in experiment [1] of 4.1 nM.
For the compound `COc1nc2ccc(C(O)(c3ccc(C(F)(F)F)cc3)c3cccnc3)cc2c(Cl)c1Cc1ccc(-n2cccn2)cc1` (stereo not shown) [Example 162a], at human RORγt LBD, the IC50 was 310 nM and the inhibition at 6 µM was found to be 90%. The Kd in experiment [1] stood at 20 nM. Further, the IC50 in experiment [2] (Homo sapiens, CD4+ T) amounted to 250 nM.
`COc1nc2ccc(C(O)(c3ccc(Cl)cc3)c3cncn3C)cc2c(Cl)c1Cc1ccc(C(F)(F)F)nc1` (single isomer, unassigned) [Example 39c]: the IC50 was determined as 81 nM against human RORγt LBD and 37 nM in experiment [2] (Homo sapiens, CD4+ T). Besides, the “RORγt … % inhibition @ 6 μM” value on human RORγt LBD came to 98%. The compound further displayed a Kd in experiment [1] of 19 nM.
For the compound `COc1nc2ccc(C(O)(c3ccc(C)nc3C)c3cnnn3C)cc2c(Cl)c1Cc1ccc(F)cc1` (single isomer, unassigned) [Example 48c, (4-Chloro-3-(4-fluorobenzyl)-2-methoxyquinolin-6-yl)(2,6-dimethylpyridin-3-yl)(1-methyl-1H-1,2,3-triazol-5-yl)methanol], on human RORγt LBD, the IC50 was roughly 80 nM and the “RORγt … % inhibition @ 6 μM” value is 63%. Also, in experiment [1], the Kd turned out to be 0.3 nM. The compound further showed an IC50 in experiment [2] (Homo sapiens, CD4+ T) of 2.3 nM.
The compound `CCc1nc2ccc(C(O)(c3cnnn3C)c3cnc(C)n3C)cc2c(Cl)c1Cc1ccc(C(F)(F)F)cc1` (single isomer, unassigned) [Example 25b, (4-Chloro-2-ethyl-3-(4-(trifluoromethyl)benzyl)quinolin-6-yl)(1,2-dimethyl-1H-imidazol-5-yl)(1-methyl-1H-1,2,3-triazol-5-yl)methanol] gave an IC50 in experiment [2] (Homo sapiens, CD4+ T) of 2.1 nM.
Turning to `COc1nc2ccc(C(O)(c3ccc(Cl)cc3)c3cncn3C)cc2c(Cl)c1Cc1ccc(C(F)(F)F)nc1` (stereo not shown) [Example 39a], on human RORγt LBD, half-maximal inhibition (IC50) was put at 72 nM and the inhibition at 6 µM stood at 92%. The same compound returned a Kd in experiment [1] of 66 nM. Also, the IC50 in experiment [2] (Homo sapiens, CD4+ T) is 110 nM.
Consider `COc1nc2ccc(C(N)(c3ccc(Cl)cc3)c3cncn3C)cc2c(Cl)c1Cc1ccc(-n2cccn2)cc1` (single isomer, unassigned) [Example 118c, (3-(4-(1H-Pyrazol-1-yl)benzyl)-4-chloro-2-methoxyquinolin-6-yl)(4-chlorophenyl)(1-methyl-1H-imidazol-5-yl)methanamine•TFA], for which the IC50 in experiment [2] was found to be 50 nM.

As usually defined, the IC50 is the concentration at which inhibition is half-maximal. Low readings indicate inhibition by little substance, high ones a need for much substance. The Kd is the free concentration of one partner at which half of the binding sites on the other are occupied at equilibrium, for simple one-to-one binding. The term inhibition denotes the change of the read-out against control, counted positive when it falls.
